Values of other authors in US20110118360A1, “AGENT FOR ACTIVATING STEM CELLS” (priority 2008, published 2011).

B1: Filgastrim: glycoprotein consisting of 175 amino acids obtained by expression of a human gene in E. coli (protein, chains of the INN, looked up)
chain: MTPLGPASSLPQSFLLKCLEQVRKIQGDGAALQEKLCATYKLCHPEELVLLGHSLGIPWAPLSSCPSQALQLAGCLSQLHSGLFLYQGLLQALEGISPELGPTLDTLQLDVADFATTIWQQMEELGMAPALQPTQGAMPAFASAFQRRAGGVLVASHLQSFLEVSYRVLRHLAQP
modifications: N-terminal methionine, E. coli expressed
notes: glycoprotein consisting of 175 amino acids obtained by expression of a human gene in E. coli

What was measured:
neutrophils = conditions: shortened from 5

| Molecule | effect on 26S proteasome activity (26S proteasome) | effect on mesenchymal stem cells (mesenchymal stem cells) | maturation period of neutrophils from the progenitor cells (neutrophils) |
| --- | --- | --- | --- |
| CC(C)C[C@H](NC(=O)[C@H](Cc1ccccc1)NC(=O)c1cnccn1)B(O)O [bortesomib, [(1R)-3-methyl-1 [[(2S)-1-oxo-3-phenyl-2-[(pirasinilcarbonil)amino]propyl]amino]butyl]] | highly selective reversible inhibitor | direct pharmacological effect on mesenchymal stem cells |  |
| B1 |  |  | 1 days |
